Experiment [1] addresses T1, HIV integrase (Human immunodeficiency virus type 1 group M subtype B, UniProt P04585).
T1 construct: HIV integrase
As to the kind of experiment: Strand Transfer Assay for HIV Integrase (microtiter assay, processed donor (HIV) DNA to nonspecific, nicked target DNA). Conditions: inhibitor at various concentrations in the range of 1 to 100 μM. The format is biochemical. As to the method: Strand Transfer Assay for HIV Integrase
A microtiter assay for strand transfer of processed donor (HIV) DNA to nonspecific, nicked target DNA was conducted according to Wolfe, et al., J. Virol., 70, 1424 (1996), herein incorporated by reference for these purposes. To assay inhibition of such strand transfer by HIV integrase, the reaction was conducted with inhibitor having various concentrations in the range of 1 to 100 μM.

Experiment [2] deals with T2, HIV-1 integrase (Human immunodeficiency virus type 1 group M subtype B, UniProt P04585).
T2 construct: HIV-1 integrase
As to the kind of experiment: HIV Integrase Substrate Cleavage (endonucleolytic processing and joining of the 3' end of HIV long terminal repeat terminus; coupled reaction). Conditions: inhibitor at various concentrations in the range of 1 to 100 μM. The format is biochemical. The method, then:
HIV Integrase Substrate Cleavage
As assay for endonucleolytic processing and joining of the 3' end of HIV long terminal repeat terminus by HIV-1 integrase was conducted according to Hazuda, et al., Nud. Acids Res., 22, 1121 (1994), herein incorporated by reference for these purposes. To assay inhibition of the coupled reaction, the assay was conducted with inhibitor having various concentrations in the range of 1 to 100 μM.

This is an account of results in patent US6124327A, “HIV integrase inhibitors” (Merck & Co., Inc., priority 1998, dated 2000).

As to `CCCC(CCCCCCCc1cc(O)cc(O)c1C(=O)OC(CCC)CCCCCCCc1cc(O)cc(O)c1)OC(C)=O` (centres unmarked) [Compound A], the results for the IC50 in experiment [1] and in experiment [2] were 32 µM and 3.2 µM, respectively.

Regarding `CCCC(O)CCCCCCCc1cc(O)cc(O)c1C(=O)OC(CCC)CCCCCCCc1cc(O)cc(O)c1` (centres unmarked) [Compound B], the values for the IC50 in experiment [1] and in experiment [2] were 17 µM and 6.1 µM, respectively.

As to `CCC/C=C/CCCCCCc1cc(O)cc(O)c1C(=O)OC(CCC)CCCCCCCc1cc(O)cc(O)c1` (centres unmarked) [Compound C], the results for the IC50 in experiment [1] and in experiment [2] were above 88 µM and 3.5 µM, respectively.

On to `CCCC(O)CCCCCCCc1cc(O)cc(O)c1` (centres unmarked) [Compound D], for which the half-inhibitory concentration (IC50) in experiment [1] is above 100 µM; in experiment [2], 93 µM.

By IC50 is commonly meant the concentration at which inhibition is half-maximal. Low readings indicate greater potency in that assay, high ones weaker potency in that assay.
